The source of these data is article PMC8981980 (Journal of medicinal chemistry, 2022).

Entries after “also recorded” stand apart in the source; their conditions may differ.

One data set addresses T1, CHD1L (Homo sapiens, UniProt Q86WJ1).
T1 sequence (Q86WJ1 41-540 limits assumed): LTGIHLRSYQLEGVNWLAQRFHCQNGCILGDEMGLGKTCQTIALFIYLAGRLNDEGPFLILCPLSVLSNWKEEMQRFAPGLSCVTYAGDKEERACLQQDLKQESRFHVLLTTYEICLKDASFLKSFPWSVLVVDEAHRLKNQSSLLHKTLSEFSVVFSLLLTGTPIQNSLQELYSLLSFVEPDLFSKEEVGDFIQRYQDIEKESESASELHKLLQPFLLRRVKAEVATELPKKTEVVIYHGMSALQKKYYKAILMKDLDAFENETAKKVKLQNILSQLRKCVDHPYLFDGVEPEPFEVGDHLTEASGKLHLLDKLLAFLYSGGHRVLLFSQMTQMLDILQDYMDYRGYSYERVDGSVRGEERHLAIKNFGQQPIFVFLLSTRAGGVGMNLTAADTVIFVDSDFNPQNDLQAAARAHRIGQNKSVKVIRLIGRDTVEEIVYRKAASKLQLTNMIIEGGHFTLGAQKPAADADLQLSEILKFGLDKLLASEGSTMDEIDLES
Nature of the data set: SAR summary from cat-CHD1L inhibition and cell-based assays. To be noted: SAR statement relative to parent / 1-carbon analogs.

For data set [1], the system named is HCT116 M-Phenotype tumor organoids (VimPro-GFP / EcadPro-RFP). Nature of the data set: EMT dual-reporter 3D high-content imaging, HCT116 M-Phenotype tumor organoids. The format is cell-based. To be noted: as treatment dose increases.
Data set [2] in a line: In vitro mouse microsomal stability. The conditions noted are these: compared with 6.0 / other tested CHD1Li.
A further data set relates to SW620 tumor organoids. Nature of the data set: SW620 tumor organoid viability. The format is cell-based. The conditions noted are these: compared to 6.1, 6.2 and 6.3; SI Table S1.
Data set [3] concerns SW620 isolated M-Phenotype flank tumors. Nature of the data set: Xenograft antitumor efficacy study. The format is in vivo, athymic nude mice.
In a further data set the test system is CSC stemness. The conditions noted are these: clonogenic colony formation assay; cited from earlier work.
For data set [4] the following is noted: cited from earlier work.

As to `Cc1cc(Oc2ccc(NC(=O)Cc3cccs3)cc2)nc(N2CCCC2)n1` [6.13, N-(4-((6-methyl-2-(pyrrolidin-1-yl)pyrimidin-4-yl)oxy)phenyl)-2-(thiophen-2-yl)acetamide], on CHD1L, the “biological activity (cat-CHD1L inhibition and cell-based models)” value is “significant loss of activity”. Take `Cc1cc(Nc2ccc(NC(=O)Cc3c[nH]c4ccccc34)cc2)nc(N2CCCC2)n1` [6.5, 2-(1H-indol-3-yl)-N-(4-((6-methyl-2-(pyrrolidin-1-yl)pyrimidin-4-yl)amino)phenyl)acetamide]: in data set [1], the EcadPro-RFP promoter activity result is recorded as “upregulation” and the VimPro-GFP promoter activity result is recorded as “marked downregulation”. Further, the “metabolic stability to mouse liver microsomes” value (from here on “metabolic stability”) in data set [2] was “increased the metabolic stability”. Turning to `Cc1cc(Nc2ccc(NC(=O)Cc3cc(Cl)nc4ccccc34)cc2)nc(N2CCCC2)n1` [6.31], in data set [2], the “metabolic stability” value is recorded as “increased the metabolic stability”. With `Cc1cc(Nc2ccc(NC(=O)Cc3cccs3)cc2)nc(N2CCOCC2)n1` [6.15, N-(4-((6-methyl-2-morpholinopyrimidin-4-yl)amino)phenyl)-2-(thiophen-2-yl)acetamide], on CHD1L, the “biological activity (cat-CHD1L inhibition and cell-based models)” value was “significant loss in biological activity”.

With `Cc1cc(Oc2ccc(NC(=O)Cc3cccs3)cc2)nc(Cl)n1` [6.12, N-(4-((2-chloro-6-methylpyrimidin-4-yl)oxy)phenyl)-2-(thiophen-2-yl)acetamide], the “biological activity (cat-CHD1L inhibition and cell-based models)” value on CHD1L is listed as “significant loss of activity”.

Consider `Cc1nc(N2CCCC2)nc(N(C)c2ccc(NC(=O)Cc3cccs3)cc2)c1F` [6.3, N-(4-((5-fluoro-6-methyl-2-(pyrrolidin-1-yl)pyrimidin-4-yl)(methyl)amino)phenyl)-2-(thiophen-2-yl)acetamide], for which, at CHD1L, the “biological activity (cat-CHD1L inhibition and cell-based models)” value is recorded as “loss of inhibitor activity; also recorded: diminished biological activity”. As for `COc1cnc(N2CCCC2)nc1Nc1ccc(NC(=O)Cc2cccs2)cc1` [6.10, N-(4-((5-methoxy-2-(pyrrolidin-1-yl)pyrimidin-4-yl)amino)phenyl)-2-(thiophen-2-yl)acetamide], the “biological activity (cat-CHD1L inhibition and cell-based models)” value on CHD1L was “significant loss in activity”. As to `Cc1cc(Nc2ccc(NC(=O)CCc3c[nH]c4ccccc34)cc2)nc(N2CCCC2)n1` [6.6, 3-(1H-indol-3-yl)-N-(4-((6-methyl-2-(pyrrolidin-1-yl)pyrimidin-4-yl)amino)phenyl) propanamide], on CHD1L, the “biological activity (cat-CHD1L inhibition and cell-based models)” value is given as “loss of activity”. Same read-out and setting: the value for `Cc1cc(Nc2ccc(NC(=O)CCCc3c[nH]c4ccccc34)cc2)nc(N2CCCC2)n1` [6.7, 4-(1H-indol-3-yl)-N-(4-((6-methyl-2-(pyrrolidin-1-yl)pyrimidin-4-yl)amino)phenyl)butanamide] was “loss of activity”. For `Cc1cc(Nc2ccc(NC(=O)c3c[nH]c4ccccc34)cc2)nc(N2CCCC2)n1` [6.4, N-(4-((6-methyl-2-(pyrrolidin-1-yl)pyrimidin-4-yl)amino)phenyl)-1H-indole-3-carboxamide], in the data set with SW620 tumor organoids, the “cell-based antitumor activity (potency)” value is on record as “maintained potency”. Also, in data set [2], the “metabolic stability” value is “increased the metabolic stability”. `Cc1cc(Nc2ccc(NC(=O)Cc3cc(Br)cs3)cc2)nc(N2CCCC2)n1` [6.11, 2-(4-bromothiophen-2-yl)-N-(4-((6-methyl-2-(pyrrolidin-1-yl)pyrimidin-4-yl)amino)phenyl) acetamide]: in data set [3] (PO 75 mg/kg and 125 mg/kg 5-days/week over 30 days), the “tolerability / gross toxicity” value is “no adverse gross toxicity”. The tumor volume result in data set [3] (PO 75 mg/kg and 125 mg/kg 5-days/week over 30 days, from day 20, highly significant after 28 days, vs vehicle) was “significant decrease in tumor volume”. In addition, the body weight result in data set [3] (during the treatment period, PO 28 days) was “increased body weight”. Also, the “metabolic stability” value in data set [2] is given as “most metabolically stable; also recorded: increased the metabolic stability”. On CHD1L, the “biological activity (cat-CHD1L inhibition and cell-based models)” value is given as “most promising in vitro biological activity”. In the case of `Cc1cc(Nc2ccc(NC(=O)/C=C/c3c[nH]c4ccccc34)cc2)nc(N2CCCC2)n1` [6.8, (E)-3-(1H-indol-3-yl)-N-(4-((6-methyl-2-(pyrrolidin-1-yl)pyrimidin-4-yl)amino)phenyl) acrylamide], at CHD1L, the “biological activity (cat-CHD1L inhibition and cell-based models)” value is listed as “restores activity”.

As to `Cc1nc(N2CCCC2)nc(Nc2ccc(NC(=O)Cc3cccs3)cc2)c1F` [6.1, N-(4-((5-fluoro-6-methyl-2-(pyrrolidin-1-yl)pyrimidin-4-yl)amino)phenyl)-2-(thiophen-2-yl)acetamide], the “biological activity (cat-CHD1L inhibition and cell-based models)” value on CHD1L is given as “loss of inhibitor activity; also recorded: significant loss in activity”. Regarding `Cc1cc(Nc2ccc(NC(=O)Cc3cccs3)cc2)nc(N2CCCC2)n1` [6.0, N-(4-((6-methyl-2-(pyrrolidine-1-yl)pyrimidin-4-yl)amino)phenyl)-2-(thiophen-2-yl)acetamide], in the data set with CSC stemness, the CSC stemness entry was “significantly inhibits CSC stemness”. Further, the maximum tolerated dose in data set [4] (intraperitoneal (IP) daily over five days) is listed as 50 mg/kg. For the same compound, in data set [4] (mice, 50 mg/kg IP daily over five days), the liver toxicity result is “does not display any liver toxicity”. Turning to `Cc1cc(Oc2ccc(NC(=O)c3c[nH]c4ccccc34)cc2)nc(N2CCCC2)n1` [6.14, N-(4-((6-methyl-2-(pyrrolidin-1-yl)pyrimidin-4-yl)oxy)phenyl)-1H-indole-3-carboxamide], the “biological activity (cat-CHD1L inhibition and cell-based models)” value on CHD1L is recorded as “significant loss of activity”. For the compound `O=C(Cc1cccs1)Nc1ccc(Nc2nc(N3CCCC3)ncc2F)cc1` [6.2, N-(4-((5-fluoro-2-(pyrrolidin-1-yl)pyrimidin-4-yl)amino)phenyl)-2-(thiophen-2-yl)acetamide], the “biological activity (cat-CHD1L inhibition and cell-based models)” value at CHD1L was “loss of inhibitor activity”.
